Data published in BigSolDB 2.1.

O=Cc1cccc([N+](=O)[O-])c1
solubility (mole fraction)
Settings	in ethyl acetate	in isopropanol	in methanol	in n-butanol	in n-propanol	in toluene
273.15 K	–	0.00629	0.0889	0.0206	0.0254	0.0957
275.65 K	–	0.00735	0.103	0.0235	0.0293	0.11
278.15 K	–	0.0086	0.118	0.0274	0.0338	0.126
280.65 K	–	0.00997	0.136	0.0314	0.0385	0.144
283.15 K	–	0.0115	0.156	0.0357	0.0442	0.167
285.65 K	0.256	0.0133	0.178	0.041	0.0505	0.188
288.15 K	0.285	0.0153	0.203	0.0466	0.0575	0.215
290.65 K	0.316	0.0176	0.23	0.0529	0.0648	0.245
293.15 K	0.348	0.0203	0.261	0.0596	0.0729	0.276
295.65 K	0.385	0.0232	0.295	0.0677	0.0833	0.31
298.15 K	0.425	0.0267	0.332	0.0764	0.0942	0.347
300.65 K	0.465	0.0305	0.373	0.086	0.106	0.385
303.15 K	0.511	0.035	0.419	0.0973	–	0.428
303.152 K	–	–	–	–	0.12	–
